# Literature values as cited in patent publication US11590211B2, “Systems for treating dermal inflammatory conditions” (Nuvothera, Inc., priority 2016, dated 2023).
# Tests used:
# [1] = system: NF-κB; conditions: reference 5
# [2] = system: modified mouse tail test; conditions: reference 7
# [3] = system: human keratinocytes; conditions: through suppression of pro-inflammatory pathways; references 8, 9
# [4] = system: skin cells; conditions: reference 10
compound,measurement,setting,value
COc1cc(/C=C/C(=O)CC(=O)/C=C/c2ccc(O)c(OC)c2)ccc1O [curcumin],Activation of NF-κB,[1],down-modulated
same,Activity in the modified mouse tail test,[2],anti-psoriatic activity
same,Effect on proliferation of human keratinocytes,[3],inhibition of the proliferation
same,Effect on anti-apoptotic function of TNF-α in skin cells,[4],reverse the anti-apoptotic function of TNF-α
